Measured values: patent publication US6121257A, “Sulfamate containing macrocyclic immunomodulators” (Abbott Laboratories, priority 1999, dated 2000)

How the values were obtained:
[1] = test system: human mixed lymphocyte reaction (MLR); experiment: human mixed lymphocyte reaction (MLR) assay; assay type: cell-based; conditions: Table 1
Method: The immunosuppressant activity of the compounds of the present invention was determined using the human mixed lymphocyte reaction (MLR) assay described by Kino, T. et al., in Transplantation Proceedings, XIX(5):36-39, Suppl. 6 (1987), hereby incorporated by reference.

in vivo = experiment: in vivo; set-up: species or system Lewis rats; conditions: rat, 5 mg/kg
Method: In Vivo Assay of Biological Activity Whole blood concetration in the Rat.
Lewis rats (obtained from Charles River, Wilmington, Mass.), weighing 225-250 grams, were acclimated for one week in a AAALAC approved facility. All animals were fasted overnight prior to dosing and throughout the study period but were permitted free access to water. Groups of animals were given FK-506 or Example 14 at a dose of 5 mg/kg. Drugs were given in a 2 ml/kg volume of 10% ethanol, 40% propylene glycol and 2% cremophore in 5% dextrose solution for both oral (p.o.) and intraperitoneal (i.p.) administration, and in a 1 ml/kg volume of the same vehicle without cremophor for intravenous (i.v.) dosing. Blood samples were collected from the tail vein in heparinized tubes at selected time points 0.25, 2.0, and 4.0 hours after dosing.
Drugs were separated from the hemolyzed whole blood contaminants utilizing liquid-liquid extraction with ethyl acetate:hexane (1:1 by volume). Samples were centrifuged at 1200 x g for 10 minutes (4° C.) and a constant volume of the organic layer was transferred to a conical centrifuge tube and evaporated to dryness with a gentle stream of dry air over low heat (~35° C.). The samples were reconstituted with 40% (v/v) acetonitrile in water with vortexing. The compounds of interest were separated from the co-extracted components by a 5 cm×4.6 mm, 3 μm Spherisorb ODS-2 column (Regis, Morton Grove, Ill.) with an acetonitrile:methanol: 0.1% trifluoroacetic acid/0.01 M tetramethylammonium perchlorate mixture (45:5:50 by volume for FK506, 40:5:55 for analogue Example 14) at a flow rate of 1.0 ml/min with UV detection at 205 nm. The temperature of the HPLC column was maintained at 70° C.
The concentration of each sample in whole blood was calculated by a least squares linear regression analysis of the peak area compared to spiked rat blood standards.

Row | Compound | IC50 [1] [nM] | concentration at 0.25 h (in vivo) [ng/mL] | concentration at 2 h (in vivo) [ng/mL] | elimination from the blood (in vivo) | Whole Blood Concentration at 4 hours (in vivo; 240 min) [µg/mL] | concentration at 4 h (in vivo) [ng/mL]
1 | CC[C@@H]1/C=C(\C)C[C@H](C)C[C@H](OC)[C@H]2O[C@@](O)(C(=O)C(=O)N3CCCC[C@H]3C(=O)O[C@H](/C(C)=C/[C@@H]3CC[C@@H](OS(N)(=O)=O)[C@H](OC)C3)[C@H](C)[C@@H](O)CC1=O)[C@H](C)C[C@@H]2OC [Example 14] | 0.82 | 1400 | 50 | rapidly eliminated from the blood after 2 hours | 0.00 | –
2 | C=CC[C@@H]1/C=C(\C)C[C@H](C)C[C@H](OC)[C@H]2O[C@@](O)(C(=O)C(=O)N3CCCC[C@H]3C(=O)O[C@H](/C(C)=C/[C@@H]3CC[C@@H](O)[C@H](OC)C3)[C@H](C)[C@@H](O)CC1=O)[C@H](C)C[C@@H]2OC [FK-506, reference compound] | – | 1140 | 440 | – | – | 430
